# Results reported in US7776863B2, “Methods of treating HIV infection” (priority 2004, dated 2010).
# Test system: HIV-1 LAI
# Assay: microbe, parasite or virus in culture
# Conditions: Compound 1 + named drug, EC50 ratio 1:1 (Compound 1:comparator); 95% confidence interval in parentheses
# Protocol: Virus and cell lines. The T-cell lines, MT-2 and PM-1 were obtained through the AIDS Research and Reference Reagent Program, NIAID, and were contributed by Dr. D. Richman and Dr. R. Gallo, respectively. Both cell lines were cultured in RPMI 1640 medium supplemented with 10% fetal bovine serum, 2 mM L-glutamine and sub-cultured twice a week. The LAI strain of HIV-1 was obtained from the Fred Hutchinson Cancer Research Center, and the Bal strain was from NIH. Both virus stocks were amplified and titered in MT-2 cells (LAI) and PM-1 cells (Bal) using a virus infectivity assay.
# Drug Susceptibility and Cytotoxicity Assays. For drug susceptibility assays, MT-2 cells were infected with HIV-1 LAI (or PM-1 cells with HIV-1 Bal) at an MOI of 0.005, and seeded into 96-well microtiter plates (0.1×10^6 cells/ml) containing serial dilutions of test compounds. […] Each drug ratio consisted of an array of 3-fold serial dilutions, and was performed in quadruplicate. The plates were incubated at 37° C./5% CO2. The MT-2 cells infected with HIV-1 LAI were incubated for 5 days. On day-five post-infection, 20 μl from each well was harvested and quantitated by a reverse transcriptase (RT) assay, or in samples involving non-nucleoside RT inhibitors, an MTS assay. The PM-1 cells infected with HIV-1 Bal and used for studying the combinations with CCR5 inhibitors were incubated for six days. On day-six post-infection, 20 μl from each well was harvested, 20- and 50-fold diluted and quantitated by p24 assay. Cytotoxicity assays were performed using uninfected cells, exposed to the same drug combinations, and incubated for six days. Cell viability was determined by an MTS assay. The CC50 values were calculated by using the exponential form of the median effect equation as mentioned below for calculation of EC50.
# Analysis of Drug Combination Effects. For determination of CI values, drugs were diluted in a fixed ratio and multiple ratios were analyzed. The drug serial dilutions spanned a range of concentrations near the EC50 value of each compound, so that equivalent antiviral activities could be compared. Concentration-response curves were estimated for each individual drug and every combination using the median-effect equation. The equation was fit using a nonlinear regression routine (Proc Nlin) in PC SAS version 8.01 (SAS Institute Inc., SAS Version 8.01, Cary, N.C.: SAS Institute Inc., 1990).
# In this equation, Fa stands for “fraction affected,” and represents the fraction of the viral load that has been inactivated. […] ED50 is drug concentration that is expected to reduce the amount of virus by 50%, and m is a parameter that reflects the slope of the concentration-response curve.
# To assess antiviral effects of different drug combination treatments, combination indices (CIs) were calculated according to Chou and Rideout. The combination index was computed as CI=[D]1/[Dm]1+[D]2/[Dm]2
# In this equation [Dm]1 and [Dm]2 are the concentrations of drugs that would individually produce a specific level of effect, while [D]1 and [D]2 are the concentrations of drugs in combination that would produce the same level of effect.
# Theoretically, additivity is implied if the CI is equal to one, synergy if the CI is less than one, and antagonism if the CI is greater than one. […] At best, we can construct a range that contains the likely values for the CI, given the noise in the data. In this report, these ranges are reported in parentheses next to each point estimate of the CI. […] If the range fell entirely above 1.0, we would infer antagonistic behavior. If the range were to include 1.0, we would infer additivity.
# In carrying out the combination experiments below, the EC50 for Compound 1 and each comparator compound was determined during the course of each study, and used in the subsequent data analysis.
Structure (SMILES),Combination Indices at % HIV Inhibition (Confidence Interval) 50%,Combination Indices at % HIV Inhibition (Confidence Interval) 75%,Combination Indices at % HIV Inhibition (Confidence Interval) 90%
"Cc1cccc(C)c1OCC(=O)N[C@@H](Cc1ccccc1)[C@@H](O)C[C@H](Cc1ccccc1)NC(=O)[C@H](C(C)C)N1CCCNC1=O [Lopinavir, lopinavir]","0.47 (0.38, 0.56)","0.66 (0.48, 0.84)",
"Cc1c(O)cccc1C(=O)N[C@@H](CSc1ccccc1)[C@H](O)CN1C[C@H]2CCCC[C@H]2C[C@H]1C(=O)NC(C)(C)C [Nelfinavir, nelfinavir]","0.39 (0.34, 0.44)","0.47 (0.39, 0.56)","0.58 (0.41, 0.74)"
"Nc1ccn([C@@H]2CS[C@H](CO)O2)c(=O)n1 [Lamivudine, lamivudine]","0.75 (0.45, 1.05)","0.79 (0.35, 1.23)","0.90 (0.11, 1.69)"
"Cc1cn([C@H]2C=C[C@@H](CO)O2)c(=O)[nH]c1=O [Stavudine, stavudine]","0.52 (0.40, 0.64)","0.60 (0.41, 0.80)","0.75 (0.36, 1.14)"

# Same assay, conditions: Compound 1 + named drug, EC50 ratio 1:2.5 (Compound 1:comparator); 95% confidence interval in parentheses
Structure (SMILES),Combination Indices at % HIV Inhibition (Confidence Interval) 50%,Combination Indices at % HIV Inhibition (Confidence Interval) 75%,Combination Indices at % HIV Inhibition (Confidence Interval) 90%
"Cc1cccc(C)c1OCC(=O)N[C@@H](Cc1ccccc1)[C@@H](O)C[C@H](Cc1ccccc1)NC(=O)[C@H](C(C)C)N1CCCNC1=O [Lopinavir, lopinavir]","0.89 (0.73, 1.05)","0.90 (0.67, 1.13)","1.00 (0.60, 1.40)"
"Cc1c(O)cccc1C(=O)N[C@@H](CSc1ccccc1)[C@H](O)CN1C[C@H]2CCCC[C@H]2C[C@H]1C(=O)NC(C)(C)C [Nelfinavir, nelfinavir]","0.41 (0.32, 0.50)","0.81 (0.57, 1.05)","1.61 (0.84, 2.37)"
"Nc1ccn([C@@H]2CS[C@H](CO)O2)c(=O)n1 [Lamivudine, lamivudine]","0.13 (0.10, 0.16)","0.21 (0.16, 0.27)","0.39 (0.21, 0.58)"
"Cc1cn([C@H]2C=C[C@@H](CO)O2)c(=O)[nH]c1=O [Stavudine, stavudine]","0.38 (0.31, 0.45)","0.37 (0.28, 0.46)","0.40 (0.23, 0.56)"

# Same assay, conditions: Compound 1 + named drug, EC50 ratio 2.5:1 (Compound 1:comparator); 95% confidence interval in parentheses
Structure (SMILES),Combination Indices at % HIV Inhibition (Confidence Interval) 50%,Combination Indices at % HIV Inhibition (Confidence Interval) 75%,Combination Indices at % HIV Inhibition (Confidence Interval) 90%
"Cc1cccc(C)c1OCC(=O)N[C@@H](Cc1ccccc1)[C@@H](O)C[C@H](Cc1ccccc1)NC(=O)[C@H](C(C)C)N1CCCNC1=O [Lopinavir, lopinavir]","0.29 (0.25, 0.33)","0.37 (0.30, 0.44)","0.51 (0.37, 0.65)"
"Cc1c(O)cccc1C(=O)N[C@@H](CSc1ccccc1)[C@H](O)CN1C[C@H]2CCCC[C@H]2C[C@H]1C(=O)NC(C)(C)C [Nelfinavir, nelfinavir]","0.12 (0.09, 0.15)","0.32 (0.22, 0.42)","0.87 (0.38, 1.35)"
"Nc1ccn([C@@H]2CS[C@H](CO)O2)c(=O)n1 [Lamivudine, lamivudine]","0.14 (0.10, 0.17)","0.26 (0.18, 0.33)","0.49 (0.22, 0.75)"
"Cc1cn([C@H]2C=C[C@@H](CO)O2)c(=O)[nH]c1=O [Stavudine, stavudine]","0.69 (0.51, 0.88)","0.78 (0.49, 1.07)","0.92 (0.36, 1.48)"

# Same assay, conditions: Compound 1 + named drug, all ratios; MT-2 cells, HIV-1 LAI
row,Structure (SMILES),Overall Result (combined anti-HIV effect)
1,"Cc1cccc(C)c1OCC(=O)N[C@@H](Cc1ccccc1)[C@@H](O)C[C@H](Cc1ccccc1)NC(=O)[C@H](C(C)C)N1CCCNC1=O [Lopinavir, lopinavir]",Additive-
2,"Cc1c(O)cccc1C(=O)N[C@@H](CSc1ccccc1)[C@H](O)CN1C[C@H]2CCCC[C@H]2C[C@H]1C(=O)NC(C)(C)C [Nelfinavir, nelfinavir]",Additive-
3,"Cc1cn([C@H]2C=C[C@@H](CO)O2)c(=O)[nH]c1=O [Stavudine, stavudine]",Moderate-

# Same assay, conditions: Human immunodeficiency virus 1, MT2, 120 h
row,Structure (SMILES),EC50 [nM]
1,"Cc1cccc(C)c1OCC(=O)N[C@@H](Cc1ccccc1)[C@@H](O)C[C@H](Cc1ccccc1)NC(=O)[C@H](C(C)C)N1CCCNC1=O [Lopinavir, lopinavir]",4
2,"Cc1c(O)cccc1C(=O)N[C@@H](CSc1ccccc1)[C@H](O)CN1C[C@H]2CCCC[C@H]2C[C@H]1C(=O)NC(C)(C)C [Nelfinavir, nelfinavir]",3
3,"Cc1cn([C@H]2C=C[C@@H](CO)O2)c(=O)[nH]c1=O [Stavudine, stavudine]",72
